One data set has as its target T1, TRPV2 (Mus musculus, UniProt Q9WTR1).
T1 sequence (Q9WTR1 1-756): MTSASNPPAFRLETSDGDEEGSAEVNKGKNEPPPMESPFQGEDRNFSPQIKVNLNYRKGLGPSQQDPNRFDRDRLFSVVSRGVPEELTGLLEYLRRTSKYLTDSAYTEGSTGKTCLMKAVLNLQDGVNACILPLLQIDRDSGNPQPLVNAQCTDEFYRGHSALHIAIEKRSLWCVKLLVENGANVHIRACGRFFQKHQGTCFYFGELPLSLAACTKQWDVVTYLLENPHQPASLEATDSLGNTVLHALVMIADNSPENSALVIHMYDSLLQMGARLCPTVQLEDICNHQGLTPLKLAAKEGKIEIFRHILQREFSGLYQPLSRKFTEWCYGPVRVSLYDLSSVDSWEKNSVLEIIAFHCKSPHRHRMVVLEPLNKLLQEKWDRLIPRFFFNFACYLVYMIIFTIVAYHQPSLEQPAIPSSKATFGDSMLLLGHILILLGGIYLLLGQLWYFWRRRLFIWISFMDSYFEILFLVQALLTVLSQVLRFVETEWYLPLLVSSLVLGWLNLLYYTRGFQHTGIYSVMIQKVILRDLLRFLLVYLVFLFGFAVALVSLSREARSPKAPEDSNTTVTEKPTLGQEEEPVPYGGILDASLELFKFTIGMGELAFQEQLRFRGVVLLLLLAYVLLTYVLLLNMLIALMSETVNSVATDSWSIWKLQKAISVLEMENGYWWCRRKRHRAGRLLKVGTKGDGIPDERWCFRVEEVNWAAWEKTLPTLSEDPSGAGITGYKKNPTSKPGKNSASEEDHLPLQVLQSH
Briefly: Ca++ imaging in N2a cells over-expressing TRPV2 (hypotonicity). The note with it: 5 μM.

A further data set addresses TRPV4 (Rattus norvegicus, UniProt Q9ERZ8). Briefly: Patch-clamp recording of TRPV4-mediated currents in TRPV4-GFP+ N2a cells. The class given is cell-based. The arrangement: expressed in transfected cells; host or cells: N2a (mouse neuroblastoma) cells. The settings on record: 5 μM, 5 min pre-incubation, GSK101 5 nM, current densities at −100mV/+100 mV. The protocol: Figure 3 TRPV4 channel inhibition by compounds 16-8 and 16-19 – patch-clamp e-phys. (A) Current-voltage relationship of TRPV4-mediated currents after activation with 5 nM GSK101. Recordings were performed in TRPV4-GFP+ N2a cells. The representative traces represent an average of ≈12 sweeps. In all experiments, cells were pre-incubated with the respective compound (5 μM) for 5 minutes.
Heterologously transfected N2a cells were subjected to patch clamp electrophysiological recordings. Briefly, 24 h after transfection cells were prewashed with extracellular fluid (ECF) which contained (in mM) 1 MgCl2, 10 Glucose, 10 HEPES, 145 NaCl and 2 CaCl2 (pH 7.4, 310mOsM). Cells were then incubated with or without TRPV4 inhibitors in ECF for 5 min before whole cell recording. Cover slips were transferred to a recording chamber mounted on the stage of a Leica inverted microscope that was equipped with fluorescent filters. Transfected cells were identified before patching by their green florescent color. Cells were patched with a 2.5–3.0 MΩ glass electrode pulled from borosilicate glass capillaries using pipette puller (Sutter instruments). […] Whole cell currents were recorded using pclamp 9.2 software and Axopatch 200B amplifier (Molecular Devices). […] Capacitance was monitored throughout the experimental recordings. […]

The test system of data set [1] is formalin-evoked trigeminal irritant pain (TRPA1 contribution). Briefly: Trigeminal formalin irritant pain model, Trpv4-/- mice. It counts as in vivo, mouse. The note with it: 10 mg/kg i.p.; for late-phase pain behavior: vs vehicle. The method, then:
Figure 7 16-8 and 16-19 effectively attenuate formalin-evoked trigeminal irritant pain. (A) Time-course of nocifensive behavior in WT mice following whisker-pad injection of 4% formalin. The mice were pre-injected (i.p., 10 mg/kg; 15 min before formalin) with GSK205, 16-8 or 16-19. Note effective reduction of nocifensive behavior in the late “neural” phase by compounds 16-8, 16-19, not by GSK205. (B) Cumulative response binned into 3 phases: acute phase (0–5 min), interphase (5–15 min), and late “neural” phase (15–45 min). […] (C) As in (A), but also including Trpv4^−/− mice. Compounds were applied i.p. 15 min before formalin challenge, at 10 mg/kg except established TRPA1 blocker, A967079 (25 mg/kg). Previously-established attenuated nocifensive behavior in early and late phase in Trpv4^−/− mice was recapped, which was reduced further by TRPA1 blocker, A967079. (D) As in (B), plus inclusion of Trpv4^−/− mice. Robust effects of TRPA1-blocker, A967079, were mimicked equi-potently by 16-8 and 16-19 for early phase, and by 16-8 for late phase, partially by 16-19 for late phase. (A,C) show averaged behavioral metrics per time-point, bars in (B,D) represent mean ± SEM; for (D) ^*P < 0.05; ^#P < 0.005, one-way ANOVA; for all panels n = 5–8 mice/group. […] We observed significant residual irritant-pain behavior in all phases of the formalin model in Trpv4^−/− mice, consistent with our previous report[13] (Fig. 7C,D). […] A reference TRPA1-inhibitory compound, A967079, was used at 25 mg/kg body weight as a positive control to inhibit TRPA1, based on a previous report. Reduction of pain behavior in Trpv4^−/− mice was striking, more than 50% in the late neural phase. […] We conclude that compound 16-8 also functions as a potent TRPA1-inhibitor in an in-vivo irritant pain model specifically designed to assess the contribution of TRPA1 to trigeminal irritant pain, and at least as potent as an established reference TRPA1-antagonistic compound. Implementation of this model was conducted as described previously. Video-taped nocifensive behavior was assessed by investigators blinded to genotype and treatment.

The test system of a further data set is N2a cells. Kind of data set: Cell viability (resazurin) in N2a cells. It counts as cell-based. The method, then:
Figure 6 Cellular toxicity studies of compounds 16-8 and 16-19. N2a cells were subjected to increasing concentrations of compounds 16-8 and 16-19, resulting cell viability was analyzed for the next 48 h. (A) Time course of cell viability in the presence of various concentrations of 16-8. […] Representative result of 2 independent experiments.
N2a cells were cultured in 96 well plates for 24–48 h. Cell viability studies relied on metabolic capability monitored with the indicator dye resazurin. Its reduction to resorufin (indicated by color change dark blue to pink) was monitored over time. Changes in absorbance at λ = 570 nm were recorded using a microplate reader (Molecular Devices). […] Eight replicate cultures per experimental point were studied.
In general terms: Resazurin is reduced to fluorescent resorufin, in cell work by metabolically active cells.

A further data set has as its target TRPV1 (Mus musculus, UniProt Q704Y3). Briefly: Ca++ imaging in N2a cells over-expressing TRPV1 (capsaicin). The settings on record: 5 μM.

TRPV1, sequence (Q704Y3 whole entry): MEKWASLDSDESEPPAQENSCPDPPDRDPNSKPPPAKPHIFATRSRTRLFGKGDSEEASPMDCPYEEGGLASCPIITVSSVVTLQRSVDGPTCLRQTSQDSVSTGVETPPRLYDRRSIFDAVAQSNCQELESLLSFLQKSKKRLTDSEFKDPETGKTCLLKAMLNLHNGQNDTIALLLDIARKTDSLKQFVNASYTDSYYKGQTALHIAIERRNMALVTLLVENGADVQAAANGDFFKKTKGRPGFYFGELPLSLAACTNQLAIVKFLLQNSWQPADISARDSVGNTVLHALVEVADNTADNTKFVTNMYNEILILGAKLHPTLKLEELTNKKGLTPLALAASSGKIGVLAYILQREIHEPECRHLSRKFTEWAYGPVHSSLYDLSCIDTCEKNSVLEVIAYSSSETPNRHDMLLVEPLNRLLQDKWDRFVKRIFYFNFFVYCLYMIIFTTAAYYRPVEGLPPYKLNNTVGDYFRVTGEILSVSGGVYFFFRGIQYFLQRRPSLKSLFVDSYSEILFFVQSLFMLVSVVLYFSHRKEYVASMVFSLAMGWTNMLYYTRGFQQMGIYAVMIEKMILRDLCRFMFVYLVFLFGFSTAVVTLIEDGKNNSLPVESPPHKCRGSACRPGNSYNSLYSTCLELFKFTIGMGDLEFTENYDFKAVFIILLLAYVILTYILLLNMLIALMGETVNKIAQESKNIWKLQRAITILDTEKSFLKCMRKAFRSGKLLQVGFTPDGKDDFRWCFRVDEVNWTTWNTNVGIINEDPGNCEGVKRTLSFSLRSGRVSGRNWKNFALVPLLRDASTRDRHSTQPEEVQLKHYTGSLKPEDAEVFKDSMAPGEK
TRPV4, sequence (Q9ERZ8 whole entry): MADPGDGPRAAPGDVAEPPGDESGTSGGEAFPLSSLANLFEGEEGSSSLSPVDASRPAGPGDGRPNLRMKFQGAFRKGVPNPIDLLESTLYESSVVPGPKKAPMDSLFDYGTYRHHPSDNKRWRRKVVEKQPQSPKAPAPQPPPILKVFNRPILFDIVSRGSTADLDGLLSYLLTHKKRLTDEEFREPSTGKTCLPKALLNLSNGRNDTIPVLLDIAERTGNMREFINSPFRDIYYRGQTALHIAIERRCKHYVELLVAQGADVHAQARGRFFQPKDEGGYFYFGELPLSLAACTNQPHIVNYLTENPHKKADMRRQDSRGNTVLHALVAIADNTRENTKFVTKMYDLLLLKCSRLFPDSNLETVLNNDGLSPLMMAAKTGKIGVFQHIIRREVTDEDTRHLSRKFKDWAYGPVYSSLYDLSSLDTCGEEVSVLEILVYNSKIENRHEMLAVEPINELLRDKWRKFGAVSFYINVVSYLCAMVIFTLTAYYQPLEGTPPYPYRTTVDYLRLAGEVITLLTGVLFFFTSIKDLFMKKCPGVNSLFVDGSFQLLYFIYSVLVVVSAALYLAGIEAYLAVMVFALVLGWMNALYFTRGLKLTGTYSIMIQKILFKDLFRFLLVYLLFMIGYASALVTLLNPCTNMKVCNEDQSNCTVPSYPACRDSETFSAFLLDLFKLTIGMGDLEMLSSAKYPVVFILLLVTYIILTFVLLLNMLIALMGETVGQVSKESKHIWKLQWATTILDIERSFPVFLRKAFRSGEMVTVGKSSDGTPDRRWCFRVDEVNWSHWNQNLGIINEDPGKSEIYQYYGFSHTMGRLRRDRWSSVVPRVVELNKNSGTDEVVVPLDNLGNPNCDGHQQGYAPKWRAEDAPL
Protocol for TRPV1: (§1) (A) Specificity vs TRPV1-3. […] Mean±SEM is shown, ≥100 cells per condition. […] Plot generated from averaged peak ∆Ca^++ concentration of ≥75 cells per data-point.
(§2) N2a cells were used for directed expression of TRP ion channels as described previously[13]. […] All other channels were native channels from mouse, eGFP was co-transfected. […] Ca^++ imaging was performed as described previously[13][14][34].
Protocol for TRPV2: as §1, §2

On to `CCN(CCc1ccc(Nc2nc(-c3ccccc3)cs2)cc1)Cc1ccccc1` [16-19], for which the “inhibition of TRPV2” value on TRPV2 was “did not inhibit”. The “attenuation of TRPV4-mediated currents” value on TRPV4 is “significantly increased potency”. In data set [1], the immediate-phase pain behavior result is “virtually eliminated” and the late-phase pain behavior entry is given as “still significantly reduced”. Further, the “cellular toxicity vs inhibitory potency against TRPV4/TRPA1, factor” value with N2a cells was 50–100. On TRPV1, the “inhibition of TRPV1” value was “did not inhibit”.
Turning to `CN(CCc1ccc(Nc2nc(-c3ccccc3)cs2)cc1)Cc1ccccc1` [16-8], the “inhibition of TRPV2” value against TRPV2 is “did not inhibit”. Moreover, the “attenuation of TRPV4-mediated currents” value at TRPV4 is “significantly increased potency”. For the same compound, in data set [1], the immediate-phase pain behavior result is “virtually eliminated” and the late-phase pain behavior result is “strikingly reduced”. In addition, the “cellular toxicity vs inhibitory potency against TRPV4/TRPA1, factor” value in the data set on N2a cells is 50–100. Besides, the cell viability result with N2a cells (increasing concentrations, followed for 48 h) was “clear reduction at 40 and 80 μM”. Also, the “inhibition of TRPV1” value against TRPV1 is on record as “did not inhibit”.

Source of the values: paper PMC4887995, “Small molecule dual-inhibitors of TRPV4 and TRPA1 for attenuation of inflammation and pain” (Scientific Reports, 2016).
